Source: paper PMC6309603 (Molecular diversity, 2018)
Like-named read-outs stand apart in the source and are kept apart here.

How the values were obtained:
AChE = AChE (Homo sapiens, UniProt P22303); experiment: biochemical; conditions: for Selectivity for AChE: IC50 (BChE)/IC50 (AChE)
BChE = BChE (Homo sapiens, UniProt P06276); experiment: biochemical
Chain of BChE (P06276 29-602): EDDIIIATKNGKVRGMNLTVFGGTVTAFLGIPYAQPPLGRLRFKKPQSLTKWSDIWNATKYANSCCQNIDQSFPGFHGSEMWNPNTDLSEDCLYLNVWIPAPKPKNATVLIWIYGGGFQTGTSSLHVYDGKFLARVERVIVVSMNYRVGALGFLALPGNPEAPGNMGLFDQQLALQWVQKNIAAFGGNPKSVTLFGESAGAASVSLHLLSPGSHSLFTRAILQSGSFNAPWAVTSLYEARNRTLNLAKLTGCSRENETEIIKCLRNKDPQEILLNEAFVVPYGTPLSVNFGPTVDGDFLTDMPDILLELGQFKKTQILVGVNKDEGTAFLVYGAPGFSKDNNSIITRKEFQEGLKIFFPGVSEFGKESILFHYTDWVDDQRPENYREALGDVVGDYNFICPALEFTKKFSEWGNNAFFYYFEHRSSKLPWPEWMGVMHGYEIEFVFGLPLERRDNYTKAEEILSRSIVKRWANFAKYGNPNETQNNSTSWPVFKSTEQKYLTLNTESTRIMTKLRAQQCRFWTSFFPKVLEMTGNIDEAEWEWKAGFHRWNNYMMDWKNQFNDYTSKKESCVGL

Chain of AChE (P22303 32-614): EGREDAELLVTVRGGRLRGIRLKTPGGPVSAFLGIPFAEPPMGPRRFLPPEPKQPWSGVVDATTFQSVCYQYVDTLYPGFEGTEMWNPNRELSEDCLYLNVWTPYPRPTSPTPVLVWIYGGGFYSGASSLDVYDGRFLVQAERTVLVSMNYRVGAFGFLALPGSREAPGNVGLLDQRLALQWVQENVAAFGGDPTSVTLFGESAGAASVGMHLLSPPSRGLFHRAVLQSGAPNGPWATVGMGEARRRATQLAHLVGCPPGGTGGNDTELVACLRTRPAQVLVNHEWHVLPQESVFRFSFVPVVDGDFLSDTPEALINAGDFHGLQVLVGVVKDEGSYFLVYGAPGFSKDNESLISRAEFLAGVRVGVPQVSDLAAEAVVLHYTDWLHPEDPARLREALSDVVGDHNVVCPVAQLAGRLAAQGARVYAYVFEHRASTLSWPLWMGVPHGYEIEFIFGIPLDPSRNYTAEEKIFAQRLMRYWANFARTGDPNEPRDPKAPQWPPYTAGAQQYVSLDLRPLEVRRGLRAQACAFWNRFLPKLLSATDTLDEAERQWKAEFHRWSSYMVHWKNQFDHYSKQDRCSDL

Row | Compound | IC50 (AChE) [µM] | IC50 (BChE) [µM] | Selectivity for AChE (AChE) | inhibitory activity against AChE (in words) (AChE) | IC50 (AChE; read-out: IC50 AChE, means±SD of three assays, 30 min, 30 °C, pH 8.0) [µM] | inhibitory activity against BChE (in words) (BChE) | IC50 (BChE; read-out: IC50 BChE, means±SD of three assays, 30 min, 30 °C, pH 8.0) [µM] | selectivity over BChE (in words) (AChE)
1 | CN(C)CCOc1ccc(/C=C/C(=O)c2cc3ccccc3oc2=O)cc1 [Compound 5d, (E)-3-(3-(4-(2-(dimethylamino)ethoxy)phenyl)acryloyl)-2H-chromen-2-one] | 0.37 ± 0.03 | > 500 | – | – | – | – | – | –
2 | O=C(/C=C/c1ccc(OCCN2CCCCC2)cc1)c1cc2ccccc2oc1=O [Compound 5f, (E)-3-(3-(4-(2-(piperidin-1-yl)ethoxy)phenyl)acryloyl)-2H-chromen-2-one] | 0.69 ± 0.06 | 1.03 ± 0.05 | 1.49 | – | – | – | – | –
3 | CCN(CC)CCOc1ccc(/C=C/C(=O)c2cc3ccccc3oc2=O)cc1 [Compound 5g, (E)-3-(3-(4-(2-(diethylamino)ethoxy)phenyl)acryloyl)-2H-chromen-2-one] | 4.34 ± 0.29 | 6.21 ± 0.19 | 1.43 | – | – | – | – | –
4 | O=C(/C=C/c1ccc(OCCN2CCOCC2)cc1)c1cc2ccccc2oc1=O [Compound 5h, (E)-3-(3-(4-(2-morpholinoethoxy)phenyl)acryloyl)-2H-chromen-2-one] | > 500 | > 500 | – | almost has no inhibitory activity | > 500 | almost has no inhibitory activity | > 500 | –
5 | CC(C)CCOc1ccc(/C=C/C(=O)c2cc3ccccc3oc2=O)cc1 [Compound 5i, (E)-3-(3-(4-(isopentyloxy)phenyl)acryloyl)-2H-chromen-2-one] | > 500 | > 500 | – | – | – | – | – | –
6 | CC(C)=CCOc1ccc(/C=C/C(=O)c2cc3ccccc3oc2=O)cc1 [Compound 5j, (E)-3-(3-(4-(3-methylbut-2-enyloxy)phenyl)-prop-2-enoyl)-2H-chromen-2-one] | > 500 | > 500 | – | – | – | – | – | –
7 | CN(C)CCOc1cccc(/C=C/C(=O)c2cc3ccccc3oc2=O)c1 [Compound 6d, (E)-3-(3-(3-(2-(dimethylamino)ethoxy)phenyl)acryloyl)-2H-chromen-2-one] | 0.92 ± 0.07 | 15.3 ± 1.16 | 16.64 | – | – | – | – | –
8 | O=C(/C=C/c1cccc(OCCN2CCCC2)c1)c1cc2ccccc2oc1=O [Compound 6e, (E)-3-(3-(3-(2-(pyrrolidin-1-yl)ethoxy)phenyl)acryloyl)-2H-chromen-2-one] | 3.25 ± 0.14 | 4.62 ± 0.16 | 1.42 | moderate inhibitory activity | – | – | – | low selectivity
9 | O=C(/C=C/c1cccc(OCCN2CCCCC2)c1)c1cc2ccccc2oc1=O [Compound 6f, (E)-3-(3-(3-(2-(piperidin-1-yl)ethoxy)phenyl)acryloyl)-2H-chromen-2-one] | 0.61 ± 0.02 | 4.01 ± 0.14 | 6.61 | – | – | – | – | –
10 | CCN(CC)CCOc1cccc(/C=C/C(=O)c2cc3ccccc3oc2=O)c1 [Compound 6g, (E)-3-(3-(3-(2-(diethylamino)ethoxy)phenyl)acryloyl)-2H-chromen-2-one] | 51.3 ± 1.04 | 1.12 ± 0.11 | 0.02 | – | – | – | – | –
11 | O=C(/C=C/c1cccc(OCCN2CCOCC2)c1)c1cc2ccccc2oc1=O [Compound 6h, (E)-3-(3-(3-(2-morpholinoethoxy)phenyl)acryloyl)-2H-chromen-2-one] | > 500 | > 500 | – | – | – | – | – | –
12 | CC(C)CCOc1cccc(/C=C/C(=O)c2cc3ccccc3oc2=O)c1 [Compound 6i, (E)-3-(3-(3-(isopentyloxy)phenyl)acryloyl)-2H-chromen-2-one] | > 500 | > 500 | – | – | – | – | – | –
13 | CC(C)=CCOc1cccc(/C=C/C(=O)c2cc3ccccc3oc2=O)c1 [Compound 6j, (E)-3-(3-(3-(3-methylbut-2-enyloxy)phenyl)-prop-2-enoyl)-2H-chromen-2-one] | > 500 | > 500 | – | – | – | – | – | –
14 | CN(C)CCOc1ccccc1/C=C/C(=O)c1cc2ccccc2oc1=O [Compound 7d, (E)-3-(3-(2-(2-(dimethylamino)ethoxy)phenyl)acryloyl)-2H-chromen-2-one] | 16.4 ± 0.22 | 15.2 ± 0.6 | 0.92 | – | – | – | – | –
